Assay results published in US10807988B2, “3-((hetero-)aryl)-8-amino-2-oxo-1,3-diaza-spiro-[4.5]-decane derivatives” (Grünenthal GmbH, priority 2016, dated 2020).

target: human mu-opioid peptide (hMOP) receptor (Homo sapiens (Human), UniProt P35372); assay: Human mu-opioid peptide (hMOP) receptor binding assay (SPA, [3H]naloxone displacement)
Sequence (P35372 whole entry): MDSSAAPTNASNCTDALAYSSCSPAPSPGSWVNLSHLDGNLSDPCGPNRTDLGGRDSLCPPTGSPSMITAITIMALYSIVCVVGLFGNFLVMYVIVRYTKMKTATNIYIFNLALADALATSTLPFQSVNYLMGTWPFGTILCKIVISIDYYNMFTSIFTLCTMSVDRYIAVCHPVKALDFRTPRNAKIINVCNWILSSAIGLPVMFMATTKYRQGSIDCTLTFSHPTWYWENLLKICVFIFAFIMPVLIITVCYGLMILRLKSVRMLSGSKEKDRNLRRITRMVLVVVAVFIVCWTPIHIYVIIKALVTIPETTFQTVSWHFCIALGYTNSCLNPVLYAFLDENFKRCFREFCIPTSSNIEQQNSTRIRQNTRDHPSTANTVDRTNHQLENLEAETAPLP

| SMILES | Ki | hMOP % inhibition at 1 μM |
| --- | --- | --- |
| CN(C)[C@]1(c2ccccc2)CC[C@]2(CC1)CN(c1cnc(C#N)nc1)C(=O)N2CCO [SC_3025, cis-5-[8-Dimethylamino-1-(2-hydroxy-ethyl)-2-oxo-8-phenyl-1,3-diazaspiro[4.5]decan-3-yl]-pyrimidine-2-carbonitrile] | 1530 nM |  |
| CNC1(c2ccccc2)CCC2(CC1)CN(c1ccccc1C(N)=O)C(=O)N2 (stereo not drawn) [SC_3119, cis-2-(8-Methylamino-2-oxo-8-phenyl-1,3-diazaspiro[4.5]decan-3-yl)-benzamide] |  | 10% |
| CN(C)C1(c2nc3ccccc3n2C)CCC2(CC1)CN(c1cnc(C(F)(F)F)nc1)C(=O)N2 (stereo not drawn) [SC_3219, cis-8-Dimethylamino-8-(1-methyl-1H-benzoimidazol-2-yl)-3-[2-(trifluoromethyl)-pyrimidin-5-yl]-1,3-diazaspiro[4.5]decan-2-one] |  | 1% |
| CN(CC1CCOC1)[C@]1(c2ccccc2)CC[C@]2(CC1)CN(c1cnc(N3CCOCC3)nc1)C(=O)N2 (stereo partly drawn) [SC_3305, cis-8-[Methyl-(tetrahydro-furan-3-yl-methyl)-amino]-3-(2-morpholin-4-yl-pyrimidin-5-yl)-8-phenyl-1,3-diazaspiro[4.5]decan-2-one] |  | 0% |
| CN(CC1CCOC1)[C@]1(c2ccccc2)CC[C@]2(CC1)CN(c1cnc(N3CCOCC3)nc1)C(=O)N2 (stereo partly drawn) [SC_3304, cis-8-[Methyl-(tetrahydro-furan-3-yl-methyl)-amino]-3-(2-morpholin-4-yl-pyrimidin-5-yl)-8-phenyl-1,3-diazaspiro[4.5]decan-2-one] |  | 4% |

target: human nociceptin/orphanin FQ peptide (hNOP) receptor (Homo sapiens (Human), UniProt P41146); assay: not given; assay type: binding

| SMILES | hNOP % inhibition at 1 μM | hNOP % inhibition at 10 μM |
| --- | --- | --- |
| CN(C)[C@]1(Cc2ccccc2)CC[C@@]2(CC1)CN(c1cnc(C(F)(F)F)nc1)C(=O)N2 [SC_3166, trans-8-Benzyl-8-dimethylamino-3-[2-(trifluoromethyl)-pyrimidin-5-yl]-1,3-diazaspiro[4.5]decan-2-one] | 3% |  |
| CN(C)C1(Cc2ccccc2)CCC2(CC1)CN(c1cnc(N3CCOCC3)nc1)C(=O)N2 (stereo not drawn) [SC_3161, cis-8-Benzyl-8-dimethylamino-3-(2-morpholin-4-yl-pyrimidin-5-yl)-1,3-diazaspiro[4.5]decan-2-one] | 2% |  |
| CCN[C@]1(c2ccccc2)CC[C@@]2(CC1)CN(c1cnc(C#N)nc1OC)C(=O)N2 [SC_3144, trans-5-(8-Ethylamino-2-oxo-8-phenyl-1,3-diazaspiro[4.5]decan-3-yl)-4-methoxy-pyrimidine-2-carbonitrile] | 0% |  |
| Cc1cc(C(F)(F)F)ncc1N1C[C@]2(CC[C@@](Cc3ccccc3)(N(C)C)CC2)NC1=O [SC_3174, trans-8-Benzyl-8-dimethylamino-3-[4-methyl-6-(trifluoromethyl)-pyridin-3-yl]-1,3-diazaspiro[4.5]decan-2-one] | 3% |  |
| CCNC1(c2ccccc2)CCC2(CC1)CN(c1ccccc1C(N)=O)C(=O)N2 (stereo not drawn) [SC_3126, cis--2-(8-Ethylamino-2-oxo-8-phenyl-1,3-diazaspiro[4.5]decan-3-yl)-benzamide] | 0% |  |
| CCN[C@]1(c2ccccc2)CC[C@@]2(CC1)CN(c1ccccc1C#N)C(=O)N2 [SC_3127, cis-2-(8-Ethylamino-2-oxo-8-phenyl-1,3-diazaspiro[4.5]decan-3-yl)-benzonitrile] | 0% |  |
| CNC1(c2ccccc2)CCC2(CC1)CN(c1ccccc1C(N)=O)C(=O)N2 (stereo not drawn) [SC_3119, cis-2-(8-Methylamino-2-oxo-8-phenyl-1,3-diazaspiro[4.5]decan-3-yl)-benzamide] | 22% |  |
| CN(C)C1(Cc2ccccc2)CCC2(CC1)CN(c1cnc(C(F)(F)F)nc1)C(=O)N2 (stereo not drawn) [SC_3165, cis-8-Benzyl-8-dimethylamino-3-[2-(trifluoromethyl)-pyrimidin-5-yl]-1,3-diazaspiro[4.5]decan-2-one] | 4% |  |
| CN(C)C1(c2nc3ccccc3n2C)CCC2(CC1)CN(c1cnc(C(F)(F)F)nc1)C(=O)N2 (stereo not drawn) [SC_3219, cis-8-Dimethylamino-8-(1-methyl-1H-benzoimidazol-2-yl)-3-[2-(trifluoromethyl)-pyrimidin-5-yl]-1,3-diazaspiro[4.5]decan-2-one] | 0% |  |
| CN(CC1CCOC1)[C@]1(c2ccccc2)CC[C@]2(CC1)CN(c1cnc(N3CCOCC3)nc1)C(=O)N2 (stereo partly drawn) [SC_3305, cis-8-[Methyl-(tetrahydro-furan-3-yl-methyl)-amino]-3-(2-morpholin-4-yl-pyrimidin-5-yl)-8-phenyl-1,3-diazaspiro[4.5]decan-2-one] | 10% |  |
| Cc1cc(C(F)(F)F)ncc1N1CC2(CCC(Cc3ccccc3)(N(C)C)CC2)NC1=O (stereo not drawn) [SC_3215, cis-8-Benzyl-8-dimethylamino-3-[4-methyl-6-(trifluoromethyl)-pyridin-3-yl]-1,3-diazaspiro[4.5]decan-2-one] | 0% |  |
| CN(CC1CCOC1)[C@]1(c2ccccc2)CC[C@]2(CC1)CN(c1cnc(N3CCOCC3)nc1)C(=O)N2 (stereo partly drawn) [SC_3304, cis-8-[Methyl-(tetrahydro-furan-3-yl-methyl)-amino]-3-(2-morpholin-4-yl-pyrimidin-5-yl)-8-phenyl-1,3-diazaspiro[4.5]decan-2-one] | 9% |  |
| CCN[C@]1(c2ccccc2)CC[C@]2(CC1)CN(c1ccccc1C#N)C(=O)N2 [SC_3128, cis-2-(8-Ethylamino-2-oxo-8-phenyl-1,3-diazaspiro[4.5]decan-3-yl)-benzonitrile] | 0% |  |
| CCN[C@]1(c2ccccc2)CC[C@]2(CC1)CN(c1cnc(C#N)nc1OC)C(=O)N2 [SC_3143, cis-5-(8-Ethylamino-2-oxo-8-phenyl-1,3-diazaspiro[4.5]decan-3-yl)-4-methoxy-pyrimidine-2-carbonitrile] | 0% |  |
| CN1CCN(c2ncc(N3CC4(CCC(c5ccccc5)(N(C)CC5CCOC5)CC4)NC3=O)cn2)CC1 (single isomer, unassigned; enantiomer 2) [SC_3325, cis-3-[2-(4-Methyl-piperazin-1-yl)-pyrimidin-5-yl]-8-[methyl-(tetrahydro-furan-3-yl-methyl)-amino]-8-phenyl-1,3-diazaspiro[4.5]decan-2-one (enantiomer 2)] |  | 53%@10 μM |
| CN1CCN(c2ncc(N3CC4(CCC(c5ccccc5)(N(C)CC5CCOC5)CC4)NC3=O)cn2)CC1 (single isomer, unassigned; enantiomer 1) [SC_3324, cis-3-[2-(4-Methyl-piperazin-1-yl)-pyrimidin-5-yl]-8-[methyl-(tetrahydro-furan-3-yl-methyl)-amino]-8-phenyl-1,3-diazaspiro[4.5]decan-2-one (enantiomer 1)] | 12% |  |
| CCNC1(c2ccccc2)CCC2(CC1)CN(c1ccc(C#N)cc1OC)C(=O)N2 (stereo not drawn) [SC_3134, trans-4-(8-Ethylamino-2-oxo-8-phenyl-1,3-diazaspiro[4.5]decan-3-yl)-3-methoxy-benzonitrile] |  | 3%@10 μM |
| CN(C)[C@]1(Cc2ccccc2)CC[C@@]2(CC1)CN(c1cnc(N3CCOCC3)nc1)C(=O)N2 [SC_3160, trans-8-Benzyl-8-dimethylamino-3-(2-morpholin-4-yl-pyrimidin-5-yl)-1,3-diazaspiro[4.5]decan-2-one] | 4% |  |
| CCNC1(c2ccccc2)CCC2(CC1)CN(c1ccccc1C(N)=O)C(=O)N2 (stereo not drawn) [SC_3125, trans-2-(8-Ethylamino-2-oxo-8-phenyl-1,3-diazaspiro[4.5]decan-3-yl)-benzamide] |  | 3%@10 μM |
| CCNC1(c2ccccc2)CCC2(CC1)CN(c1ccc(C#N)cc1OC)C(=O)N2 (stereo not drawn) [SC_3135, cis-4-(8-Ethylamino-2-oxo-8-phenyl-1,3-diazaspiro[4.5]decan-3-yl)-3-methoxy-benzonitrile] | 1% |  |
